In patent US6838237B2, “Antigenically reactive regions of the hepatitis a virus polyprotein” (The United States of America as represented by the …, priority 1996, dated 2005):

Columns and labels:
[1] = test system: anti-HAV-positive sera; test: EIA for anti-HAV: synthetic peptides adsorbed to wells, reacted with anti-HAV-positive acute sera; assay type: binding, human; conditions: for Reactivity with acute sera (reactive/tested): experiment 1: sera 1:100, anti-human IgG-HRP, cutoff P/N 3.0; for Reactivity with acute sera (percent of sera reactive): experiment 1: sera 1:100, cutoff P/N 3.0; for P/N for acute sera (mean) / P/N for acute sera (range, in parentheses): experiment 1, OD493 positive/negative ratio of reactive sera
Text: (§1) All anti-HAV-positive and anti-HAV-negative sera were randomly selected from a collection reposited at the Centers for Disease Control and Prevention, Atlanta, Ga. Serum specimens were collected from anti-HAV-positive patients with acute liver disease. Anti-HAV-negative serum specimens were collected from normal blood donors. All sera were initially tested by commercially available kit for the presence of anti-HAV activity (HAVAB and HAVAB-M, Abbott Laboratories, Abbott Park, Ill.)
(§2) Synthetic peptides (110 ml) at a concentration of 10 mg/ml in 0.1 M phosphate-buffered saline (PBS), pH 7.5, were adsorbed to microtiter wells (Immulon II, Dynatech Laboratories, Inc.) at room temperature for 12 h. Sera were diluted in PBS containing 0.1% Tween 20 and 10% normal goat serum (PBS-T) and 100 ml were added to each well, incubated for 60 min at 37E C, and washed with PBS containing Tween-20. […] Two different cutoffs were established for experiments 1 and 2. In experiment 1, the cutoff, expressed as a P/N ratio and equal to 3.0, was statistically established as the mean of negative controls plus at least 3.5 standard deviations (SD) above the mean, where P represents the optical density value at 493 nm (OD493) of anti-HAV-positive specimens and N represents the optical density value of negative controls. In experiment 2, a different cutoff was used to ensure statistical reliability and accurate interpretation of positive results. In this case, in addition to anti-HAV-negative sera, two irrelevant synthetic peptides were used as supplemental negative controls to determine the degree of nonspecific binding of anti-HAV sera to synthetic peptides. One cutoff, expressed as a P/N ratio and equal to 3.0, corresponded to the mean of negative serum controls plus at least 3.5 SD above the mean. A second cutoff was also expressed as a P/N ratio, where P represents the optical density value at 493 nm (OD493) for HAV peptides immunoreacting with anti-HAV-positive specimens and N represents the optical density value obtained with the irrelevant peptides. The second cutoff was equal 2.0 and corresponded to the mean of OD values obtained with the irrelevant peptides plus at least 3.5 SD above the mean. Synthetic peptides were considered immunoreactive with anti-HAV serum specimens only when both cutoffs were satisfied.

[2] = test system: anti-HAV-negative sera; test: EIA for anti-HAV: synthetic peptides reacted with anti-HAV-negative sera; assay type: binding, human; conditions: experiment 1: sera 1:100, cutoff P/N 3.0
Text: as §1, §2

Row | Sequence | Reactivity with acute sera (reactive/tested) [1] | Reactivity with acute sera (percent of sera reactive) [1] [%] | P/N for acute sera (mean) [1] | P/N for acute sera (range, in parentheses) [1] | Reactivity with negative sera (reactive/tested) [2]
1 | DLEEIAANSKDFPNMSETDL [YK-1328] | 6/48 | 12.5 | 4.76 | (3.74-6.39) | 1/51
2 | INPTPFQQGGLICAMVPGDQ [YK-1217] | 4/41 | 9.8 | 4.03 | (3.94-4.12) | 0/46
3 | TPVGLAVDTPWVEKESALSI [YK-1290] | 6/48 | 12.5 | 4.48 | (3.0-6.44) | 1/51
4 | GLVRKNLVQFGVGEKNGCVR [YK-1376] | 3/41 | 7.3 | 6.71 | (3.8-12.77) | 0/27
5 | HTYARFGIEIQVQINPTPFQ [YK-1216] | 23/41 | 56.1 | 5.3 | (3.42-10.79) | 4/46
6 | FQSFPSGEPSNSKLSGFFQS [YK-1370] | 10/41 | 24.4 | 8.05 | (3.05-18.48) | 1/27
7 | NRGKMDVSGVQAPVGAITTI [YK-1268] | 7/46 | 15.2 | 9.1 | (6.07-15.25) | 2/48
8 | SEKTIWSLIAWQRSNAEFEQ [YK-1434] | 11/41 | 26.8 | 7.47 | (3.85-16.03) | 1/27
9 | SLIAWQRSNAEFEQNLENAQ [YK-1435] | 6/41 | 14.6 | 8.96 | (5.16-13.71) | 1/27
10 | FPELKPGESRHTSDHMSIYK [YK-1274] | 9/46 | 19.6 | 5.31 | (3.0-8.47) | 1/48
11 | GLDHILSLADIEEEQMIQSV [YK-1206] | 8/42 | 19.1 | 9.46 | (3.01-27.07) | 0/46
12 | HFKDPQYPVWELTIRVWSEL [YK-1222] | 2/41 | 4.9 | 4.29 |  | 0/46
13 | NPSPKTVYVKEAIDRRLHFK [YK-1360] | 4/41 | 9.8 | 4.08 | (3.68-4.71) | 0/46
14 | LSFSCYLSVTEQSEFYFPRA [YK-1307] | 6/48 | 12.5 | 5.88 | (4.17-7.64) | 0/51
15 | DLDFSAFDASLSPFMIREAG [YK-1419] | 5/41 | 12.2 | 5.27 | (3.98-8.49) | 1/27
